Data set [1] concerns Hepatotoxicity. Description: Literature-mined compound from Fourches et al multi-species drug-induced liver injury (DILI) dataset, effect in humans. The settings on record: human.
Data set [2] concerns Hepatotoxicity. Description: Literature-mined compound from Fourches et al multi-species drug-induced liver injury (DILI) dataset, effect in rodents. The settings on record: rodentia.
In data set [3] the test system is Hepatotoxicity. Description: Literature-mined compound from Fourches et al multi-species drug-induced liver injury (DILI) dataset, effect in non-rodents.

For 32 compounds, Hepatotoxicity results are on record in ChEMBL document CHEMBL1697731, “Cheminformatics analysis of assertions mined from literature that describe drug-induced liver injury in different species” (Chem Res Toxicol, 2010).

Each structure is given as a SMILES string.

On to `Cc1[nH]c(/C=C2\C(=O)Nc3ccccc32)c(C)c1CCC(=O)O` [ORANTINIB], for which the Hepatotoxicity result is “drug-induced liver injury reported” in data set [1], “no drug-induced liver injury reported” in data set [2] and “no drug-induced liver injury reported” in data set [3].
For the compound `CCCCCCCCCCC[C@@H](C[C@@H]1OC(=O)[C@H]1CCCCCC)OC(=O)[C@H](CC(C)C)NC=O` [ORLISTAT], the results for the Hepatotoxicity result in data set [1], in data set [2] and in data set [3] were “drug-induced liver injury reported”, “no drug-induced liver injury reported” and “no drug-induced liver injury reported”, respectively.
For the compound `O=C(O)c1cc(=O)[nH]c(=O)[nH]1` [OROTIC ACID], the Hepatotoxicity entry is listed as “no drug-induced liver injury reported” in data set [1], “drug-induced liver injury reported” in data set [2] and “no drug-induced liver injury reported” in data set [3].
For `Cc1ccccc1C(OCCN(C)C)c1ccccc1` (stereo unspecified) [ORPHENADRINE], the Hepatotoxicity result in data set [1] is “no drug-induced liver injury reported”; in data set [2] it was “drug-induced liver injury reported”; in data set [3], “no drug-induced liver injury reported”.
As for `CC(C)NCC1CCc2cc(CO)c([N+](=O)[O-])cc2N1` (stereo unspecified) [OXAMNIQUINE], the Hepatotoxicity result in data set [1] is “no drug-induced liver injury reported”; in data set [2] it was “drug-induced liver injury reported”; in data set [3], “no drug-induced liver injury reported”.
On to `C[C@]12COC(=O)C[C@@H]1CC[C@@H]1[C@@H]2CC[C@@]2(C)[C@H]1CC[C@]2(C)O` [OXANDROLONE], for which the Hepatotoxicity entry is given as “no drug-induced liver injury reported” in data set [1], “drug-induced liver injury reported” in data set [2] and “no drug-induced liver injury reported” in data set [3].
As for `O=C(O)CCc1nc(-c2ccccc2)c(-c2ccccc2)o1` [OXAPROZIN], the Hepatotoxicity result in data set [1] is “drug-induced liver injury reported”; in data set [2] it was “no drug-induced liver injury reported”; in data set [3], “no drug-induced liver injury reported”.
As to `NC(=O)N1c2ccccc2CC(=O)c2ccccc21` [OXCARBAZEPINE], the Hepatotoxicity result in data set [1] is on record as “drug-induced liver injury reported”; in data set [2], “no drug-induced liver injury reported”; in data set [3] it was “no drug-induced liver injury reported”.
Turning to `CNCC(O)c1ccc(O)cc1` (stereo unspecified) [OXEDRINE], the results for the Hepatotoxicity entry in data set [1], in data set [2] and in data set [3] were “no drug-induced liver injury reported”, “drug-induced liver injury reported” and “no drug-induced liver injury reported”, respectively.
`CN(C(=O)CN(CCO)CC(=O)N(C)C(C)(C)Cc1ccccc1)C(C)(C)Cc1ccccc1` [OXETHAZAINE]: the values for the Hepatotoxicity entry in data set [1], in data set [2] and in data set [3] were “no drug-induced liver injury reported”, “drug-induced liver injury reported” and “no drug-induced liver injury reported”, respectively.
Turning to `C=CCOc1ccccc1OCC(O)CNC(C)C` (stereo unspecified) [OXPRENOLOL], the Hepatotoxicity result was “no drug-induced liver injury reported” in data set [1] (Liver), “no drug-induced liver injury reported” in data set [2] (Liver) and “drug-induced liver injury reported” in data set [3] (Liver).
For the compound `COc1ccc(C(=O)c2ccccc2)c(O)c1` [OXYBENZONE], the Hepatotoxicity entry is on record as “no drug-induced liver injury reported” in data set [1], “drug-induced liver injury reported” in data set [2] and “no drug-induced liver injury reported” in data set [3].
Take `COc1ccc2c3c1O[C@H]1C(=O)CC[C@@]4(O)[C@@H](C2)N(C)CC[C@]314.Cl` [OXYCODONE HYDROCHLORIDE]: the Hepatotoxicity result in data set [1] (Liver) is reported as “no drug-induced liver injury reported”; in data set [2] (Liver) it was “drug-induced liver injury reported”; in data set [3] (Liver), “no drug-induced liver injury reported”.
As to `C[C@]12C/C(=C/O)C(=O)C[C@@H]1CC[C@@H]1[C@@H]2CC[C@@]2(C)[C@H]1CC[C@]2(C)O` [OXYMETHOLONE], the figures for the Hepatotoxicity entry in data set [1], in data set [2] and in data set [3] were “drug-induced liver injury reported”, “no drug-induced liver injury reported” and “no drug-induced liver injury reported”, respectively.
As to `CN1CC[C@]23c4c5ccc(O)c4O[C@H]2C(=O)CC[C@@]3(O)[C@H]1C5` [OXYMORPHONE], the Hepatotoxicity entry is given as “drug-induced liver injury reported” in data set [1], “no drug-induced liver injury reported” in data set [2] and “no drug-induced liver injury reported” in data set [3].
As to `CCCCC1C(=O)N(c2ccccc2)N(c2ccc(O)cc2)C1=O` (stereo unspecified) [OXYPHENBUTAZONE ANHYDROUS], the Hepatotoxicity result in data set [1] was “no drug-induced liver injury reported”; in data set [2], “drug-induced liver injury reported”; in data set [3], “no drug-induced liver injury reported”.
Consider `O=C1Nc2ccccc2C1(c1ccc(O)cc1)c1ccc(O)cc1` [OXYPHENISATINE], for which the Hepatotoxicity result in data set [1] is “drug-induced liver injury reported”; in data set [2] it was “no drug-induced liver injury reported”; in data set [3] it was “no drug-induced liver injury reported”.
With `O=c1[nH]c(=O)c2c[nH]nc2[nH]1` [OXYPURINOL], the Hepatotoxicity entry in data set [1] is reported as “no drug-induced liver injury reported”; in data set [2], “drug-induced liver injury reported”; in data set [3], “no drug-induced liver injury reported”.
For `CN(C)[C@@H]1C(O)=C(C(N)=O)C(=O)[C@@]2(O)C(O)=C3C(=O)c4c(O)cccc4[C@@](C)(O)[C@H]3[C@H](O)[C@@H]12` [OXYTETRACYCLINE], the Hepatotoxicity result in data set [1] is listed as “no drug-induced liver injury reported”; in data set [2], “drug-induced liver injury reported”; in data set [3], “no drug-induced liver injury reported”.
Regarding `O=C(O)/C=C/c1ccc(Cn2ccnc2)cc1` [OZAGREL], the Hepatotoxicity result in data set [1] is “no drug-induced liver injury reported”; in data set [2], “drug-induced liver injury reported”; in data set [3], “no drug-induced liver injury reported”.
In the case of `CC(=O)O[C@H]1C(=O)[C@@]2(C)[C@H]([C@H](OC(=O)c3ccccc3)[C@]3(O)C[C@H](OC(=O)[C@H](O)[C@@H](NC(=O)c4ccccc4)c4ccccc4)C(C)=C1C3(C)C)[C@]1(OC(C)=O)CO[C@@H]1C[C@@H]2O` [PACLITAXEL], the figures for the Hepatotoxicity entry in data set [1] (Liver), in data set [2] (Liver) and in data set [3] (Liver) were “drug-induced liver injury reported”, “drug-induced liver injury reported” and “no drug-induced liver injury reported”, respectively.
In the case of `COc1ccnc(C[S+]([O-])c2nc3ccc(OC(F)F)cc3[nH]2)c1OC` (stereo unspecified) [PANTOPRAZOLE], the results for the Hepatotoxicity result in data set [1], in data set [2] and in data set [3] were “drug-induced liver injury reported”, “no drug-induced liver injury reported” and “no drug-induced liver injury reported”, respectively.
On to `NC[C@@H]1O[C@H](O[C@H]2[C@@H](O)[C@H](O[C@@H]3[C@@H](O)[C@H](N)C[C@H](N)[C@H]3O[C@H]3O[C@H](CO)[C@@H](O)[C@H](O)[C@H]3N)O[C@@H]2CO)[C@H](N)[C@@H](O)[C@@H]1O` [PAROMOMYCIN], for which the values for the Hepatotoxicity result in data set [1], in data set [2] and in data set [3] were “no drug-induced liver injury reported”, “drug-induced liver injury reported” and “no drug-induced liver injury reported”, respectively.
Consider `Fc1ccc([C@@H]2CCNC[C@H]2COc2ccc3c(c2)OCO3)cc1` [PAROXETINE], for which the values for the Hepatotoxicity entry in data set [1], in data set [2] and in data set [3] were “drug-induced liver injury reported”, “no drug-induced liver injury reported” and “no drug-induced liver injury reported”, respectively.
Regarding `NC1=NC(=O)C(c2ccccc2)O1` (stereo unspecified) [PEMOLINE], the values for the Hepatotoxicity result in data set [1], in data set [2] and in data set [3] were “drug-induced liver injury reported”, “no drug-induced liver injury reported” and “no drug-induced liver injury reported”, respectively.
In the case of `Nc1nc2c(ncn2CCC(CO)CO)c(=O)[nH]1` [PENCICLOVIR], the values for the Hepatotoxicity entry in data set [1], in data set [2] and in data set [3] were “drug-induced liver injury reported”, “no drug-induced liver injury reported” and “no drug-induced liver injury reported”, respectively.
Take `CC(C)(S)[C@@H](N)C(=O)O` [PENICILLAMINE]: the Hepatotoxicity entry in data set [1], in data set [2] and in data set [3] was “drug-induced liver injury reported” throughout.
`CC1(C)S[C@@H]2[C@H](NC(=O)Cc3ccccc3)C(=O)N2[C@H]1C(=O)O` [PENICILLIN G]: the Hepatotoxicity result in data set [1], in data set [2] and in data set [3] was “drug-induced liver injury reported” in each case.
`CSCC[C@H](NC(=O)[C@H](Cc1c[nH]c2ccccc12)NC(=O)CCNC(=O)OC(C)(C)C)C(=O)N[C@@H](CC(=O)O)C(=O)N[C@@H](Cc1ccccc1)C(N)=O` [PENTAGASTRIN]: the Hepatotoxicity result in data set [1] is given as “drug-induced liver injury reported”; in data set [2] it was “drug-induced liver injury reported”; in data set [3] it was “no drug-induced liver injury reported”.
For the compound `CCCC(C)C1(CC)C(=O)NC(=O)NC1=O` (stereo unspecified) [PENTOBARBITAL], the Hepatotoxicity entry in data set [1], in data set [2] and in data set [3] was “drug-induced liver injury reported” each time.
On to `CC(=O)CCCCn1c(=O)c2c(ncn2C)n(C)c1=O` [PENTOXIFYLLINE], for which the Hepatotoxicity entry in data set [1], in data set [2] and in data set [3] was “drug-induced liver injury reported” in each case.
In the case of `CN1CCN(CCCN2c3ccccc3Sc3ccccc32)CC1` [PERAZINE], the Hepatotoxicity result in data set [1] is reported as “drug-induced liver injury reported”; in data set [2], “no drug-induced liver injury reported”; in data set [3], “no drug-induced liver injury reported”.
